pKd: −log10 of the molar value.
Key:
[1] = system: IL-1β mRNA in HaCaT cells; assay: Screening in HaCaT cell model stimulated by OligodA-T, real-time PCR of IL-1β mRNA; type: cell-based; settings: 10 uM, 24 hours, OligodA-T 1 ug/mL, among 100 compounds
Procedure: The protective ability of 100 compounds screened above against cell pyroptosis of HaCaT cells stimulated by OligodA-T is evaluated by the real-time fluorescent quantitative polymerase chain reaction (PCR) detection of IL-1β mRNA in the stimulated cells.
1. Positive control (PC) and negative control (NC) are set in the experimental group. An inclusion of Lip3000 (Lipofectamine™ 3000 Transfection Reagent) and OligodA-T (OligodA-T:Lip3000:P3000=1:1:25, a concentration of OligodA-T is 1 microgram per […] (ug/mL)) is used to transfect HaCat cells. Lip3000-OligodA-T and 10 micromoles per liter (uM) small molecule inhibitor are used to transfect the HaCat cells in each treatment group, and only the same amount of transfection reagent (Lip3000:P3000=1:1) is added in NC group.
2. Each experimental group is incubated in a cell incubator containing 5% CO2 for 24 hours at 37° C., and the cells are collected for real-time fluorescence PCR detection.

[2] = system: AIM2 pathway in HaCaT cells; assay: HaCaT cell model, real-time fluorescence PCR of IL-1β and AIM2 pathway genes; type: cell-based; settings: 25 uM
Procedure: (§1) (1) A positive control (PC), a negative control (NC) and respective treatment groups are set. An inclusion of Lip3000 (Lipofectamine™ 3000 Transfection Reagent) and OligodA-T (OligodA-T:Lip3000:P3000=1:1:25, a concentration of OligodA-T is 1 ug/mL) is used to transfect HaCat cells, and only the same amount of transfection reagent (Lip3000:P3000=1:1) is added in NC group. The HaCat cells are co-transfected with an inclusion of Lip3000-OligodA-T at gradient doses (0.1 uM, 1 uM, 5 uM, 10 uM and 25 uM) of SLD-1 in the respective treatment groups.
(2) The positive control (PC), negative control (NC) and the respective treatment groups are incubated in a cell incubator containing 5% CO2 at 37° C. for 24 hours, and the cells are collected for real-time fluorescence PCR detection to observe the effect of different doses of inhibitors on the activation of AIM2 pathway in the HaCaT cells.
(4) In addition, the effect of 25 uM of SLD-1 on the transcription level of genes in the AIM2 pathway of the HaCat cell model is detected, and results are shown in FIG. 11.

HaCaT cells = assay: HaCaT cell model, cell state under microscope (pyroptosis); type: cell-based; settings: 25 uM, microscope 100 times and 400 times
Procedure: as §1
(3) In this situation, a cell state of 25 uM gradient is observed under microscope fields of 100 times and 400 times, and results are shown in FIG. 10.

mouse AIM2 protein = molecular target: T1, mouse AIM2 protein (Mus musculus, UniProt Q91VJ1); assay: Affinity by surface plasmon resonance (Biacore), amino coupling; settings: mouse full-length AIM2 protein, SPR; read-out: binding constant
T1 construct: a mouse full-length AIM2 protein is expressed and purified firstly by pET28a vector; made in house
T1 sequence (Q91VJ1 1-354): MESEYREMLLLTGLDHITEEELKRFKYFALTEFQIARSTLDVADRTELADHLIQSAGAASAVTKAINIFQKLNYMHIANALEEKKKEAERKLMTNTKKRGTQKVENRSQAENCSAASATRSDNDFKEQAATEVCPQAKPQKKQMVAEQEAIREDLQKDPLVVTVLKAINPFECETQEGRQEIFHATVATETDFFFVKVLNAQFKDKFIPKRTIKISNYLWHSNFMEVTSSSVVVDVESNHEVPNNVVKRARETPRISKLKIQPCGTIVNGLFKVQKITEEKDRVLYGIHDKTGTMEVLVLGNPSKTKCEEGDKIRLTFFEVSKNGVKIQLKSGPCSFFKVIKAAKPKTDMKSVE
Procedure: In the embodiment of the disclosure, the affinity between SLD-1 and mouse AIM2 protein is detected. Specifically, a mouse full-length AIM2 protein is expressed and purified firstly by pET28a vector, and then the affinity is determined by CMS chip amino coupling method by a surface plasmon resonance (SPR) method of Biacore.

IMQ mice = assay: IMQ psoriasis mouse model: PASI scores, skin phenotype, skin pathology; type: in vivo, C57/BL6 mice
Procedure: (§2) Dimethyl sulfoxide (DMSO) is used to dissolve SLD-1 powder, the powder is weighed according to different dosage, then diluted with β-cyclodextrin, and a final concentration of DMSO shall not exceed 5%. The dose gradients of SLD-1 set are 0 mg/kg, 2.5 mg/kg, 5 mg/kg and 10 mg/kg respectively. Each mouse is calculated as 20 grams (g), and 0 mg, 0.05 mg, 0.1 mg and 0.2 mg of SLD-1 are administered respective mice every day.
(§3) Seven-week-old C57/BL6 mice are selected, fed and modeled in a […] (SPF) environment. The experimental groups are as follows: • (1) mouse skin smeared with IMQ and 0 mg/kg of SLD-1; • (2) mouse skin smeared with IMQ and 2.5mg/kg of SLD-1; • (3) mouse skin smeared with IMQ and 5 mg/kg of SLD-1; • (4) mouse skin smeared with IMQ and 10 mg/kg of SLD-1; • (5) mouse skin smeared with Vaseline and 0 mg/kg of SLD-1; • (6) mouse skin smeared with Vaseline and 2.5mg/kg of SLD-1; • (7) mouse skin smeared with Vaseline and 5 mg/kg of SLD-1; and • (8) mouse skin smeared with Vaseline and 10 mg/kg of SLD-1.
(§4) Six mice in each group are shaved back hair to make a exposed skin reach 4 square centimeters. A start date of the experiment is set as day 0 and an end date is set as day 6. From day 0 to Day 5, 100 μL medicine solution is taken every day and evenly smeared mouse skin to absorb. From day 2 to day 5, each mouse 62.5 mg IMQ is smeared every day after 20 minutes of SLD-1 inhibitor. The mouse skins are scored every day, the mice are sacrificed on day 6, and skin tissue is taken for a series of tests.
PASI scores, skin phenotypes and skin pathological phenotypes of the above IMQ modeled mice are shown in FIG. 13, FIG. 14 and FIG. 15 respectively.

[3] = system: AIM2 pathway in mouse skin; assay: IMQ psoriasis mouse model: AIM2 pathway gene transcription and protein levels in skin; type: in vivo, C57/BL6 mice
Procedure: as §2, §3, §4

human AIM2 protein = molecular target: T2, human AIM2 protein (Homo sapiens, UniProt O14862); assay: Affinity by surface-plasmon resonance (Biacore), amino coupling; settings: human full-length AIM2 protein, SPR; read-out: binding constant
T2 construct: a human full-length AIM2 protein is expressed and purified firstly by pET28a vector; made in house
T2 sequence (O14862 1-343): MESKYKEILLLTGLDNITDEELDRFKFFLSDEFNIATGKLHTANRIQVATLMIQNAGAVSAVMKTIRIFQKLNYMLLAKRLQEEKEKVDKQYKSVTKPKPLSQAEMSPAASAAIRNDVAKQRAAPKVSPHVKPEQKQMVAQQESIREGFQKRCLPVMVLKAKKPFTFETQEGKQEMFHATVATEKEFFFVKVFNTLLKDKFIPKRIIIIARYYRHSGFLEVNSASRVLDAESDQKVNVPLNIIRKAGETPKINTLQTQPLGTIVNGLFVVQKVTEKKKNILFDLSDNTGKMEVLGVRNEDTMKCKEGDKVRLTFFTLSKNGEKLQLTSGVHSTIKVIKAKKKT
Procedure: In the embodiment of the disclosure, the affinity between SLD-1 and human AIM2 protein is detected. Specifically, a human full-length AIM2 protein is expressed and purified firstly by pET28a vector, and then the affinity is determined by CMS chip amino-coupling method through a surface-plasmon resonance (SPR) method of Biacore.

[4] = system: T lymphocytes of TCRγ/CD3+ RORγt in mouse skin; assay: IMQ psoriasis mouse model: flow cytometry of skin lymphocytes; type: in vivo, C57/BL6 mice; settings: 2.5 mg/kg, compared with IMQ mice without SLD-1
Procedure: as §2, §3
Six mice in each group are shaved back hair to make a exposed skin reach 4 square centimeters. A start date of the experiment is set as day 0 and an end date is set as day 6. […] The mouse skins are scored every day, the mice are sacrificed on day 6, and skin tissue is taken for a series of tests. […]

[5] = system: AIM2 downstream protein in HaCaT cells; assay: HaCaT cell model, expression of AIM2 downstream protein; type: cell-based; settings: 25 uM
Procedure: as §1
(5) Moreover, the expression of AIM2 downstream protein in the HaCaT cells treated with 25 uM SLD-1 is detected, and results are shown in FIG. 12.

`Cn1c(=O)n(C)c2cc(C(O)COc3ccc(CNC4C5CC6CC(C5)CC4C6)cc3)ccc21` (stereo not drawn) [SLD-1] was tested, and the “inhibitory effect on IL-1β mRNA compared with the positive control” value [1] was “most significant inhibitory effect (p<0.0001)”, the “transcription of major genes in the AIM2 pathway compared with the PC” value [2] was “significantly decreased” and the “IL-1β transcription levels compared to the PC” value ([2]; of gradient 0.1, 1, 5, 10, 25 uM, 24 hours) was “reduced IL-β transcription levels in the HaCat cells the most”. For the same compound, the “cell state (pyroptosis, density, adhesion)” value (HaCaT cells) was “close to that of the NC, with very few transparent pyroptosis cells, a high cell density and a good adhesion”, the pKd (mouse AIM2 protein) was 4.99 and the “reduction effect on inflammatory phenotype of IMQ mice” value (IMQ mice; 2.5 mg/kg smeared on skin) was “the most significant”. For the same compound, the “reduction effect on inflammatory phenotype of IMQ mice, comparison of doses” value (IMQ mice; 5 mg/kg and 10 mg/kg smeared on skin) was “no difference between 5 mg/kg and 10 mg/kg”, the “inflammatory phenotype of IMQ mice (PASI, skin phenotype, pathology)” value (IMQ mice; three doses 2.5, 5, 10 mg/kg smeared on skin, day 0 to day 5) was “reduced the inflammatory phenotype of IMQ mice to varying degrees” and the “AIM2 downstream procaspase-1 and proil-1β in the mouse skin” value ([3]; 2.5 mg/kg) was “no effect”. The “content of caspase-1p20 and IL-1βp17 in the mouse skin” value ([3]; 2.5 mg/kg) was “decreases the content of caspase-1p20 and IL-1βp17”, the “transcription levels of AIM2 pathway genes in the mouse skin” value ([3]; respective groups) was “no significant difference” and the pKd (human AIM2 protein) was 4.99. The “proportion of TCRγ/CD3+ RORγt in skin lymphocytes” value [4] was “significantly lower”, the “AIM2 downstream procaspase-1 and proIL-1β expression” value [5] was “no effect” and the “content of caspase-1p20 and IL-1βp17” value [5] was “reduces the content of caspase-1p20 and IL-1βp17”.

— patent US11944603B2, “Use of compound or medicinal derivative thereof in inhibiting AIM2 protein activity” (priority 2022, dated 2024)
